According to the Kinase Knowledgebase extract (Sharma et al. 2016):
Several values for one entry are separate records, joined by “and”; a condition that tells them apart may be missing. Equal values may be shown once.

Key:
MAPK14 (rat) [1] = test: Cell-Based Assay; settings: mesencephalic neurons
MAPK14 (rat) [2] = test: Animal Model; settings: mesencephalon tissue
MAPK14 (rat) [3] = test: Cell-Based Assay; settings: mesencephalic neurons; remark: listed apart in the source

Structure (SMILES) | cell count (MAPK14 (rat) [1]) [cm-2] | response (MAPK14 (rat) [1]) | cell count (MAPK14 (rat) [2]) | cell count (MAPK14 (rat) [3]) [cm-2] | response (MAPK14 (rat) [3]) [cm2]
O=[N+]([O-])c1ccc(-c2nc(-c3ccc(F)cc3)c(-c3ccncc3)[nH]2)cc1 | 283 | 400 cm2 and 570 cm2 | 3020 | 421 | 454
Oc1ccc(-c2nc(-c3ccc(F)cc3)c(-c3ccncc3)[nH]2)cc1 | 283 | 600 cm2 and 473 cm2 |  |  | 
